A value given as a limit tells only on which side of the number the result lay.

The target of test [1] is High affinity nerve growth factor receptor (Homo sapiens, UniProt P04629). Kind of test: Inhibition of TrkA (unknown origin) by radiometric analysis in presence of [gamma-33P]-ATP.
Test [2] concerns the target Serine/threonine-protein kinase PLK3 (Homo sapiens, UniProt Q9H4B4). The test is described as follows: Inhibition of PLK3 (unknown origin) by radiometric analysis in presence of [gamma-33P]-ATP.

Sequence of High affinity nerve growth factor receptor (P04629 whole entry): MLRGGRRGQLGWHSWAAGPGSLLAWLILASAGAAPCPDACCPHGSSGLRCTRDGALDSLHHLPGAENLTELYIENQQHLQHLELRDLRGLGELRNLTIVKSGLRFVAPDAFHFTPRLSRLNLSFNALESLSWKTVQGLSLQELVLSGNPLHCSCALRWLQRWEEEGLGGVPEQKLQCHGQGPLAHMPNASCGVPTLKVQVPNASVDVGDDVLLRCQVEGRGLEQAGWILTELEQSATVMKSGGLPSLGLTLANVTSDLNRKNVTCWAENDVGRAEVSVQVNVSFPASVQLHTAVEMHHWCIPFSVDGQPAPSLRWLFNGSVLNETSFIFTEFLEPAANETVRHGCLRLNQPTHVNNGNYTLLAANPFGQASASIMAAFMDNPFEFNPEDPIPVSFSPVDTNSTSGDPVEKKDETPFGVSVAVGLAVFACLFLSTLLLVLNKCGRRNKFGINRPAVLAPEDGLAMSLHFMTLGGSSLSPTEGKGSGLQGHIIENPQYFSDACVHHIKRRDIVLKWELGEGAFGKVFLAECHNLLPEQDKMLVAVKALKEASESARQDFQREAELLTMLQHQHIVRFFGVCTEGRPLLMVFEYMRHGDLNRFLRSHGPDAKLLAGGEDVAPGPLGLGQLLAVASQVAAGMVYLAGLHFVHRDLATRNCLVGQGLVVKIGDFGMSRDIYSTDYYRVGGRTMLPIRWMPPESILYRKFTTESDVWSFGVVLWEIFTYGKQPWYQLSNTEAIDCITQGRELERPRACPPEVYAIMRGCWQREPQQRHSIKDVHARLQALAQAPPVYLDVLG
Sequence of Serine/threonine-protein kinase PLK3 (Q9H4B4 whole entry): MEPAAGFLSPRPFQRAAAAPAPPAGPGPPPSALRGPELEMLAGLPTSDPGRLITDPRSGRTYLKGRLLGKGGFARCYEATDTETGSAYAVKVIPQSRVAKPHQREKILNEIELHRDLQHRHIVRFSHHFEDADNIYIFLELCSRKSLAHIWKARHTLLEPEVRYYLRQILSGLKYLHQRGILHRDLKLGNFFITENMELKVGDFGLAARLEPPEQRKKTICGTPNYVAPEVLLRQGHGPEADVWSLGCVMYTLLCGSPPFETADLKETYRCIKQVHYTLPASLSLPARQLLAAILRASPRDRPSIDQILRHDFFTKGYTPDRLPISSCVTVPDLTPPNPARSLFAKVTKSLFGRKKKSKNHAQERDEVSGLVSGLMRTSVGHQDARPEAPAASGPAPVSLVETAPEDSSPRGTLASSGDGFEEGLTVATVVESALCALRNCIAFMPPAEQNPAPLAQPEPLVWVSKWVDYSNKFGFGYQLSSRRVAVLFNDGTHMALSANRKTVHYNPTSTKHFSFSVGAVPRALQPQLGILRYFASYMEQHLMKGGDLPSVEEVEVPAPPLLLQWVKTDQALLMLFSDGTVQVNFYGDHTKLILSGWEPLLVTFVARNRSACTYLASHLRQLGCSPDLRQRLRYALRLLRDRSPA

One may read the IC50 as the point on the concentration scale where inhibition reaches its midpoint. As for `Cn1c2c(c(=O)c3ccccc31)-c1cccc(O)c1C2=O`, in test [1], the IC50 was 141 µM.
For `COc1ccc2c(c1)C(=O)c1c-2c(=O)c2ccccc2n1Cc1ccccc1`, in test [1], the IC50 is 16.4 µM.
For the compound `Cn1c2c(c(=O)c3ccc(C(F)(F)F)cc31)-c1ccccc1C2=O`, in test [1], the IC50 came out at 117 µM.
Consider `COc1ccc2c(c1)-c1c(n(C)c3ccccc3c1=O)C2=O`, for which the IC50 in test [1] is 14.4 µM.
In the case of `Cn1c2c(c(=O)c3ccccc31)-c1ccccc1C2=O`, the IC50 is more than 200 µM in test [2] and 28.9 µM in test [1].
Turning to `COc1ccc2c(c1)C(=O)c1c-2c(=O)c2ccccc2n1C`, the 50% inhibitory concentration (IC50) in test [1] was determined as 6.6 µM.
Same read-out and setting: for `Cn1c2c(c(=O)c3ccc(Cl)cc31)-c1ccccc1C2=O` the value was 88.5 µM; for `COc1cccc2c1-c1c(n(C)c3ccccc3c1=O)C2=O`, 209 µM.
`Cc1ccc2c(c1)C(=O)c1c-2c(=O)c2ccccc2n1C`: the IC50 in test [1] came out at 47.2 µM.
Still for that read-out and setting: in the case of `Cc1cccc2c1C(=O)c1c-2c(=O)c2ccccc2n1C` it was 73.3 µM; in that of `O=C1c2ccccc2-c2c1n(Cc1ccccc1)c1ccccc1c2=O`, 10.3 µM.
`CCOC(=O)n1c2c(c(=O)c3ccccc31)-c1ccccc1C2=O`: the IC50 in test [1] stood at 16.5 µM.

The values above are taken from ChEMBL document CHEMBL3627674, “Discovery of wrightiadione as a novel template for the TrkA kinase inhibitors” (Bioorg Med Chem Lett, 2015).
